From PubChem BioAssay (NCI)
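Tested at 5 concentrations; 48 h exposure; 96-well plates; endpoints linearly interpolated, else capped at highest concentration. TGI denotes the concentration required for complete inhibition of growth.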

Tests used:
Assay in all cases: inhibition of tumour cell growth, NCI panel, 48 h
ACHN renal = test system: ACHN renal
NCI-H23 lung = test system: NCI-H23 lung
HL-60(TB) leukemia = test system: HL-60(TB) leukemia
SR leukemia = test system: SR leukemia
HOP-62 NSCLC = test system: HOP-62 NSCLC
RXF 393 renal = test system: RXF 393 renal
SF-268 CNS = test system: SF-268 CNS
TK-10 renal = test system: TK-10 renal
CAKI-1 renal = test system: CAKI-1 renal
HOP-92 NSCLC = test system: HOP-92 NSCLC
SK-OV-3 ovarian = test system: SK-OV-3 ovarian
HCC-2998 colon = test system: HCC-2998 colon

Compound | TGI (ACHN renal) | TGI (NCI-H23 lung) | TGI (HL-60(TB) leukemia) | TGI (SR leukemia) | TGI (HOP-62 NSCLC) | TGI (RXF 393 renal) | TGI (SF-268 CNS) | TGI (TK-10 renal) | TGI (CAKI-1 renal) | TGI (HOP-92 NSCLC) | TGI (SK-OV-3 ovarian) | TGI (HCC-2998 colon)
CC(=O)C(CN(C)Cc1ccccc1)C(c1ccccc1)c1c(O)c2ccccc2oc1=O (configuration not stated) | > 100 µM | > 100 µM | > 100 µM | > 100 µM | > 100 µM | > 100 µM | > 100 µM | > 100 µM | > 100 µM | > 100 µM | > 100 µM | > 100 µM
OC1=CN=C(C2CC2)Oc2ccccc21 | > 100 µM | > 100 µM | > 100 µM | – | > 100 µM | > 100 µM | > 100 µM | > 100 µM | – | > 100 µM | > 100 µM | > 100 µM
O=C(O)/C(=C/c1ccccc1[N+](=O)[O-])c1cccs1 | > 100 µM | > 100 µM | > 100 µM | > 100 µM | > 100 µM | – | > 100 µM | > 100 µM | > 100 µM | – | > 100 µM | > 100 µM
O=S(=O)(c1ccccc1)n1cnc(CCc2ccccc2)n1 | > 100 µM | > 100 µM | > 100 µM | > 100 µM | > 100 µM | > 100 µM | > 100 µM | > 100 µM | > 100 µM | > 100 µM | > 100 µM | –
Cc1ccc(S(=O)(=O)C(C#N)c2nc3ccccc3nc2N2CCOCC2)cc1 (configuration not stated) | > 100 µM | 55.1 µM | – | > 100 µM | 44.6 µM | – | 71.1 µM | > 100 µM | 65 µM | – | > 100 µM | 28.5 µM
COC(=O)NN/C=C(\C=Nc1ccccc1)[N+](=O)[O-] | > 100 µM | > 100 µM | > 100 µM | > 100 µM | > 100 µM | > 100 µM | > 100 µM | > 100 µM | – | > 100 µM | > 100 µM | > 100 µM
CC(C)(C)c1cc(Oc2ccc(C#N)c(C#N)c2)cc(C(C)(C)C)c1 | > 100 µM | > 100 µM | > 100 µM | 42.3 µM | > 100 µM | > 100 µM | > 100 µM | > 100 µM | > 100 µM | > 100 µM | > 100 µM | > 100 µM
C=C(C)C1Cc2c(cc(OC)c3c(=O)c4ccccc4n(C)c23)O1 (configuration not stated) | > 100 µM | > 100 µM | > 100 µM | > 100 µM | > 100 µM | > 100 µM | > 100 µM | > 100 µM | > 100 µM | > 100 µM | > 100 µM | > 100 µM
